Earlier results as cited in patent US20130217055A1, “METHOD FOR PREDICTING TYROSINE KINASE INHIBITOR (TKI) RESISTANCE IN PATIENTS SUFFERING FROM CHRONIC MYELOGENOUS LEUKEMIA (CML)” (PamGene B.V., priority 2010, published 2013).

System: CML patients

## Cc1ccc(NC(=O)c2ccc(CN3CCN(C)CC3)cc2)cc1Nc1nccc(-c2cccnc2)n1 [Imatinib]
Patients treated in chronic phase CML
  complete or nearly complete cytogenetic remission: up to 80% of patients
Primary or secondary resistance
  CML patients treated that are or become resistant to the treatment: about 20%
